# Results reported in patent US20230265205A1, “METABOLISM-BASED CHIMERIC ANTIGEN RECEPTORS AND METHODS OF TREATMENT” (Arizona Board of Regents on behalf of Arizona State …, priority 2020, published 2023).
# Tested on: C57BL/6j bone marrow derived dendritic cells
# Assay: Seahorse extracellular acidification rate (ECAR) assay in glucose-free media
# Format: cell-based
# Settings: PFK15 200 nM, 4 hours
# Description: F16BP particles rescues glycolysis even in the presence of glycolytic inhibitor PFK15. In order to test if F16BP can indeed functionally accelerate glycolysis in the presence of low glucose environment, extracellular acidification rate (ECAR), which measures changes in extracellular pH due to lactic acid production (a byproduct of glycolysis) was determined using Seahorse assays. In this case, although, C57BL/6j bone marrow derived dendritic cells (DCs, another type of phagocytic cell) were utilized, it is believed that CAR macrophages will behave similarly. Specifically, DCs were treated with PFK15 (200 nM), or F16BP particles (0.1 mg/mL) or PFK15+F16BP particles. After 4 hours of treatment with formulations, changes in pH using ECAR were recorded in glucose-free media. In a step-wise manner cells were added with oligomycin to measure ATP production and proton leak, Carbonyl cyanide-4 (trifluoromethoxy) phenylhydrazone (FCCP—disrupts mitochondrial membrane potential) to measure maximal respiration, rotenone and antimycinA (shuts down mitochondrial respiration) to measure spare capacity.
compound,measurement,value
O=C(/C=C/c1ccc2ccccc2n1)c1ccncc1 [PFK15],ECAR values relative to no treatment control,even lower than no treatment control
